Assay results as given in patent US20240175819A1, “DIAGNOSTIC TEST” (THE UNIVERSITY OF WARWICK, priority 2022, published 2024).

Test system: E. coli
Test: Hydrogel biosensors with encapsulated antibiotic spiked with E. coli; inhibition of bacterial growth by antibiotic release (FIG. 6)
Type: cell-based
Conditions: antibiotic encapsulated within crosslinked hydrogel network, photographs
Text: FIG. 6 is a series of photographs of biosensors each comprising a different antibiotic wherein bacterial growth is inhibited as a result of antibiotic release from the hydrogel network;
Referring now to FIG. 6, there is shown photographs of three biosensors 6A, 6B, 6C each comprising a different antibiotic encapsulated within the crosslinked hydrogel network. Biosensor 6A comprises the antibiotic chloramphenicol, biosensor 6B comprises the antibiotic kanamycin, and biosensor 6C comprises the antibiotic ampicillin. The biosensors 6A, 6B, 6C were spiked with E. coli. In each case, it is shown that there is antibacterial activity in the area surrounding the spiked portion of hydrogel. Therefore, in these cases, E. coli. is shown to be susceptible to the antibiotics encapsulated within the biosensors 6A, 6B, 6C.

Structure (SMILES) | susceptibility of E. coli to the antibiotic encapsulated within the biosensor (antibacterial activity in the area surrounding the spiked portion of hydrogel)
CC1(C)S[C@@H]2[C@H](NC(=O)[C@H](N)c3ccccc3)C(=O)N2[C@H]1C(=O)O [ampicillin] | susceptible
O=C(N[C@H](CO)[C@H](O)c1ccc([N+](=O)[O-])cc1)C(Cl)Cl [chloramphenicol] | susceptible
